# Reference: patent US20040023972A1, “Use of substituted imidazo[1,2-a]-pyridin-, -pyrimidin-and-pyrazin-3-yl-amine derivatives in the preparation of medicaments for inhibiting NOS” (Gruenenthal GmbH, priority 2000, published 2004)
# Target: T1, NO synthase (Rattus norvegicus, UniProt P29476)
# T1 construct: the supernatant was then removed by decantation and frozen in portions at −80° C; from tissue; host or cells: rat cerebellum, 20,000 g supernatant of homogenate
# Assay: HTS-NOS assay (NOS assay): conversion of radioactive arginine, cation-exchanger filter plate
# Format: biochemical
# Settings: 10 μM
# Outline: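 Percent inhibition was derived by comparing remaining radioactive arginine with compound-free controls. Arginine retained on phosphate cation-exchanger filters was counted after citrulline washout, following a 5-60 min room-temperature (25 °C) reaction of labelled arginine, NADPH-containing medium and rat cerebellar homogenate supernatant.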
row,SMILES,HTS-NOS assay: % inhibition (10 μM) [%]
1,"C#[N+]CCCCCCNc1c(-c2cccc3ccccc23)nc2cc(C)cc(C)n12 [Example 128, [6-(5,7-Dimethyl-2-naphthalen-1-yl-imidazo[1,2-a]pyridin-3-ylamino)-hexyl]-methylidyne-ammonium]",63
2,"CC(=O)N(c1c(-c2ccccc2C(F)(F)F)nc2cc(C)ccn12)C1CCCCC1 [Example 164, N-cyclohexyl-N-[7-methyl-2-(2-trifluorO-methyl-phenyl)-imidazo[1,2-a]pyridin-3-yl]-acetamide]",61
3,"C#[N+]CCCCCCN(C(C)=O)c1c(-c2ccccc2OC)nc2ccc([N+](=O)[O-])cn12 [Example 238, (6-{acetyl-[2-(2-methoxy-phenyl)-6-nitro-imidazo[1,2-a]pyridin-3-yl]-amino}-hexyl)-methylidyne-ammonium]",52
4,"C#[N+]CCCCCCNc1c(-c2ccc(OC)c(OC)c2)nc2cc(C)ccn12 [Example 109, {6-[2-(3,4-Dimethoxy-phenyl)-7-methyl-imidazo[1,2-a]pyridin-3-ylamino]-hexyl}-methylidyne-ammonium]",51
5,"CC(=O)OCc1ccc(-c2nc3cc(C)cc(C)n3c2NC2CCCCC2)o1 [Example 52, Acetic acid 5-(3-cyclohexylamino-5,7-dimethyl-imidazo[1,2-a]pyridin-2-yl)-furan-2-yl methyl ester]",64

# Same assay, conditions: Table 5; concentration not given
row,NOS assay % inhibition [%],SMILES
1,55,"Cc1cc(C)n2c(NC3CCCC3)c(-c3ccc(-c4ccccc4[N+](=O)[O-])o3)nc2c1.Cl [Example 305, Cyclopentyl-{5,7-dimethyl-2-[5-(2-nitro-phenyl)-furan-2-yl]-imidazo[1,2-a]pyridin-3-yl}-amine hydrochloride]"

# Same assay, conditions: read-out: HTS-NOS assay: % inhibition (10 μM)
row,inhibition at 10 µM [%],SMILES
1,51,"COc1ccccc1-c1nc2cc(C)ccn2c1N(C(C)=O)c1c(C)cccc1C [Example 184, N-(2,6-dimethyl-phenyl)-N-[2-(2-methoxy-phenyl)-7-methyl-imidazo[1,2-a]-pyridin-3-yl]-acetamide]"
2,73,"CC(=O)N(c1c(C)cccc1C)c1c(-c2cccc(O)c2)nc2cc(C)cc(C)n12 [Example 211, N-(2,6-dimethyl-phenyl)-N-[2-(3-hydroxy-phenyl)-5,7-dimethyl-imidazo[1,2-a]-pyridin-3-yl]-acetamide]"
3,67,"CC(=O)N(c1c(-c2ccc(Cl)cc2Cl)nc2cc(C)cc(C)n12)C(C)(C)CC(C)(C)C [Example 177, N-[2-(2,4-dichloro-phenyl)-5,7-dimethyl-imidazo[1,2-a]pyridin-3-yl]-N-(1,1,3,3-tetramethyl-butyl)-acetamide]"
4,73,"CC(=O)N(c1c(-c2ccccn2)nc2cc(C)cc(C)n12)C1CCCCC1 [Example 259, N-cyclohexyl-N-(5,7-dimethyl-2-pyridin-2-yl-imidazo[1,2-a]pyridin-3-yl)-acetamide]"
5,62,"CCCCN(C(C)=O)c1c(-c2cccc(OC)c2OC)nc2cc(C)ccn12 [Example 226, N-butyl-N-[2-(2,3-dimethoxy-phenyl)-7-methyl-imidazo[1,2-a]pyridin-3-yl]-acetamide]"
6,51,"CC(=O)N(c1c(-c2cc(C)c(C)o2)nc2ccc(C)cn12)C(C)(C)C [Example 268, N-tert-butyl-N-[2-(4,5-dimethyl-furan-2-yl)-6-methyl-imidazo[1,2-a]pyridin-3-yl]-acetamide]"
7,53,"CSc1ccc(-c2nc3cnccn3c2N(C(C)=O)C(C)(C)C)s1 [Example 233, N-tert-butyl-N-[2-(5-methylsulfanyl-thiophen-2-yl)-imidazo[1,2-a]pyrazin-3-yl]-acetamide]"
8,62,"CC(=O)N(c1c(C2CCCCC2)nc2cc(C)cc(C)n12)C(C)(C)CC(C)(C)C [Example 219, N-(2-cyclohexyl-5,7-dimethyl-imidazo[1,2-a]pyridin-3-yl)-N-(1,1,3,3-tetramethyl-butyl)-acetamide]"
9,55,"CC(=O)N(c1c(-c2ccc(Cl)s2)nc2ncccn12)C(C)(C)CC(C)(C)C [Example 256, N-[2-(5-chloro-thiophen-2-yl)-imidazo[1,2-a]pyrimidin-3-yl]-N-(1,1,3,3-tetramethyl-butyl)-acetamide]"
10,59,"CC(=O)N(c1c(-c2ccncc2)nc2cc(C)cc(C)n12)C(C)(C)CC(C)(C)C [Example 146, N-(5,7-dimethyl-2-pyridin-4-yl-imidazo[1,2-a]pyridin-3-yl)-N-(1,1,3,3-tetramethyl-butyl)-acetamide]"
11,54,"COc1ccccc1-c1nc2cc(C)cc(C)n2c1N(C(C)=O)c1c(C)cccc1C [Example 180, N-(2,6-dimethyl-phenyl)-N-[2-(2-methoxy-phenyl)-5,7-dimethyl-imidazo[1,2-a]-pyridin-3-yl]-acetamide]"
12,58,"Cc1ccccc1-c1nc2c(C)cccn2c1Nc1c(C)cccc1C [Example 130, (2,6-Dimethyl-phenyl)-(8-methyl-2-o-tolyl-imidazo[1,2-a]pyridin-3-yl)-amine]"
13,56,"CC(=O)N(c1c(C)cccc1C)c1c(-c2ccc(Cl)cc2Cl)nc2ccccn12 [Example 247, N-[2-(2,4-dichloro-phenyl)-imidazo[1,2-a]pyridin-3-yl]-N-(2,6-dimethyl-phenyl)-acetamide]"

# The remaining lines, values behind:
row,SMILES,inhibition at 10 µM [%]
1,"Cc1cc(C)n2c(NC(C)(C)CC(C)(C)C)c(C3CCCCC3)nc2c1 [Example 44, (2-Cyclohexyl-5,7-dimethyl-imidazo[1,2-a]-pyridin-3-yl)-(1,1,3,3-tetramethyl-butyl)-amine]",71
2,"Cc1ccn2c(NC(C)(C)CC(C)(C)C)c(-c3ccc(C4OCCO4)o3)nc2c1 [Example 41, [2-(5-[1,3]Dioxolan-2-yl-furan-2-yl)-7-methyl-imidazo[1,2-a]pyridin-3-yl]-(1,1,3,3-tetramethyl-butyl)-amine]",57
3,"Cc1ccn2c(NC(C)(C)C)c(C)nc2c1 [Example 94, Tert-butyl-(2,7-dimethyl-imidazo[1,2-a]-pyridin-3-yl)-amine]",65
4,"Cc1ccc(-c2nc3cc(C)ccn3c2NC(C)(C)CC(C)(C)C)cc1 [Example 71, (7-Methyl-2-p-tolyl-imidazo[1,2-a]pyridin-3-yl)-(1,1,3,3-tetramethyl-butyl)-amine]",58
5,"Cc1cc(C)n2c(NC(C)(C)CC(C)(C)C)c(-c3ccco3)nc2c1 [Example 8, (2-Furan-2-yl-5,7-dimethyl-imidazo[1,2-a]-pyridin-3-yl)-(1,1,3,3-tetramethyl-butyl)-amine]",52
6,"Cc1cc(C)n2c(NC3CCCCC3)c(-c3cccnc3)nc2c1 [Example 27, Cyclohexyl-(5,7-dimethyl-2-pyridin-3-yl-imidazo[1,2-a]pyridin-3-yl)-amine]",62
7,"Cc1ccn2c(Nc3c(C)cccc3C)c(-c3ccccc3F)nc2c1 [Example 43, (2,6-Dimethyl-phenyl)-[2-(2-fluoro-phenyl)-7-methyl-imidazo[1,2-a]pyridin-3-yl]-amine]",71
8,"Cc1cccn2c(NC(C)(C)CC(C)(C)C)c(-c3cccc(Cl)c3Cl)nc12 [Example 70, [2-(2,3-Dichlorophenyl)-8-methyl-imidazo[1,2-a]pyridin-3-yl]-(1,1,3,3-tetramethyl-butyl)-amine]",52
